Columns and labels:
[1] = system: H460 cells; experiment: Proliferation assay in H460 cells (2 hr exposure, AlamarBlue); assay type: cell-based, human; conditions: Homo sapiens, NCI-H460, 2 hrs exposure, wash, 70 hrs growth, read-out: IC 50 in proliferation assay in H460 cells
Description: In vitro proliferation data on the H460 […] human tumor cell line is reported above in the compound table.
Specifically, exponentially growing cells were seeded at a density of 4×10^3 cells per well in a 96 well plate and incubated at 37° C. in 5% CO2, 95% air and 100% relative humidity for 24 hours prior to addition of test compounds. Compounds were solubilized in 100% DMSO at 200 times the desired final test concentration. At the time of drug addition, compounds were further diluted to 4 times the desired final concentration with complete medium. Aliquots of 50 μl of compound at specified concentrations were added to microtiter wells already containing 150 μl of medium, resulting in the final drug concentration reported. After drug addition, the plates were incubated for an additional 2 hours at 37° C., 5% CO2, 95% air, and 100% relative humidity, then the drug was washed off and fresh medium was added and the plates were incubated for addition 70 hrs at 37° C., 5% CO2, 95% air and 100% relative humidity. At the end of this incubation, the viable cells were quantified using the AlamarBlue assay. The drug concentration resulting in growth inhibition of 50% (IC50) was calculated using Prism software (Irvine, Calif.), and the results were listed in the table.

[2] = system: A 549 non-small cell lung xenograft; experiment: Example 4-B antitumor efficacy, ectopic A549 NSCLC xenograft model; assay type: in vivo, female nude mice (nu/nu)
From the text: (§1) Specific pathogen-free homozygous female nude mice (nu/nu, Charles River Laboratories) were used. Mice were given food and water ad libitum and housed in microisolator cages. Four to six week old animals were identified by microchips (Locus Technology, Manchester, Md., USA) at the time of the experiments. All animal studies were approved by the Institutional Animal Care and Use Committee at Threshold Pharmaceuticals, Inc.
(§2) All cell lines were from the American Type Culture Collection (ATCC, Rockville, Md., USA).
(§3) Cells were mixed with Matrigel (50% with exception for 30% in the H460) and 0.2 ml per mouse were subcutaneously implanted to the flank area of the animals. When tumor size reached 100-150 250 mm3, mice were randomized into experimental or vehicle groups with 10 mice/group and treatment was started (Day 1). The tested compounds were formulated in 5% DMSO in D5W. The regimens employed in the examples include IP, QD×5/wk (5 days on, 2 days off) as one cycle, for a total of 2 cycles; IP, once; IP, weekly for total 3 weeks; and IV, weekly for 3 weeks. Tumor growth and body weight were measured twice a week. Tumor volume was calculated as (length×width2)/2. Drug efficacy was assessed as Tumor Growth Inhibition (TGI) and Tumor Growth Delay (TGD). TGI was defined as (1−ΔT/ΔC)×100, where ΔT/ΔC presented the ratio of the change in mean (or median, if variation within the group was relatively large) tumor volume of the treated group and of the control group. TGD was calculated as the extra days for the treated tumor to reach 500 mm3 or 1000 mm3 as compared to the control group. Animals were culled when individual tumor size reached over 2000 mm3 or mean tumor volume exceeded 1000 mm3 in the group. Data are expressed as the mean±SEM. One-way analysis of variance with Dunnett post comparison test (GraphPad Prism 4) or two-tailed student's t-test were used for analysis. A P level <0.05 was considered statistically significant.
The dosing was as follows. Daily IP dosing: 5 doses then 2 days off then 5 more doses starting at 110 mm^3 tumors on day 1 (10 animals per group average tumor volume).
Doses were selected by first doing a toxicity test in CD1 mice as described above. The compounds were tested against Thio-tepa.

[3] = Example 4-B body weight change, A549 xenograft study; assay type: in vivo, female nude mice (nu/nu)
Description: as §3
Antitumor effects of compounds provided herein were determined on A 549 non-small cell lung xenograft model in comparison with a chemotherapy agent, thiotepa. The dosing was as follows. Daily IP dosing: 5 doses then 2 days off then 5 more doses starting at 110 mm^3 tumors on day 1 (10 animals per group average tumor volume). The antitumor effects and the safety of administration are graphically illustrated below.

[4] = system: A375 melanoma human tumor xenograft; experiment: Example 4-C antitumor efficacy, ectopic A375 melanoma xenograft model; assay type: in vivo, female nude mice (nu/nu); conditions: qd × 5 × 2, ip; for inhibition in vivo at 10 mg/kg: A-375, 10 mpk
From the text: as §1, §2, §3
his study employed an A375 melanoma human tumor xenograft model and various compounds provided herein were compared to thiotepa and the approved anti melanoma drug, nab-Paclitaxel.

[5] = Example 4-C body weight change, A375 xenograft study; assay type: in vivo, female nude mice (nu/nu); conditions: qd × 5 × 2, ip
Description: as §3
his study employed an A375 melanoma human tumor xenograft model and various compounds provided herein were compared to thiotepa and the approved anti melanoma drug, nab-Paclitaxel. The antitumor effects and the safety of administration are graphically illustrated below.

[6] = Pharmacokinetics in CD-1 mice following a single intraperitoneal dose (parent and TH2660); conditions: mouse, in vivo, ip, parent compound
Description: The pharmacokinetics of TH2873, TH2883, TH2888, TH2890, TH2901 and TH2926 were determined in CD-1 mice following a single intraperitoneal dose.
The pharmacokinetics of TH2660, the active metabolite, following a single intraperitoneal dose of TH2873, TH2883, TH2888, TH2890, TH2901 and TH2926 are shown below.

[7] = system: A549 NSCLC xenograft; experiment: Example 4-D antitumor efficacy, ectopic A549 NSCLC xenograft model; assay type: in vivo, female nude mice (nu/nu); conditions: 10 mg/kg IP QD × 5/wk × 2 wks
From the text: as §1, §2, §3
(§4) The compounds were tested in another A549 model. The compounds were dosed as follows. Daily IP dosing: 5 doses then 2 days off then 5 more doses starting at 100 mm^3 tumors on day 1 (10 animals per group average tumor volume). The antitumor effects and the safety of administration are graphically illustrated below.

[8] = Example 4-D body weight change and lethal toxicity, A549 xenograft study; assay type: in vivo, female nude mice (nu/nu); conditions: 10 mg/kg IP QD × 5/wk × 2 wks
Description: as §3, §4

Q: What does the source list for `O=[N+]([O-])c1ccc(COP(=O)(N2CC2)N2CC2)cc1Oc1ccccc1` [Compound 2850]?
A: IC50 [1]: 20 nM; TGD 500 ([2]; 10 mg/kg ip QD × 5/wk × 2 wks): 70 days; TGI ([2]; 10 mg/kg ip QD × 5/wk × 2 wks): 94.3%; TGD 500 ([2]; 20 mg/kg ip QD × 5/wk × 2 wks): >72 days; TGI ([2]; 20 mg/kg ip QD × 5/wk × 2 wks): 88.1%; Max. BW loss % ([3]; 10 mg/kg ip QD × 5/wk × 2 wks): 0.9%; Max. BW loss % ([3]; 20 mg/kg ip QD × 5/wk × 2 wks): 7.4%; TGD 500 ([4]; 10 mpk): -2 days; TGD 1000 ([4]; 10 mpk): 0 days; inhibition in vivo at 10 mg/kg ([4]; Mus musculus, read-out: TGI): 2.7%; Max. BW loss % ([5]; 10 mpk): 2.8%

Q: What does the source list for `CC(OP(=O)(N1CC1)N1CC1)c1ccc([N+](=O)[O-])c(Oc2cccnc2)c1` (stereo not shown) [Compound 2852]?
A: IC50 [1]: 20 nM; TGD 500 ([2]; 10 mg/kg ip QD × 5/wk × 2 wks): >72 days; TGI ([2]; 10 mg/kg ip QD × 5/wk × 2 wks): 95.1%; Max. BW loss % ([3]; 10 mg/kg ip QD × 5/wk × 2 wks): 0.0%; TGD 500 ([4]; 10 mpk): 3 days; TGD 1000 ([4]; 10 mpk): 1 days; inhibition in vivo at 10 mg/kg ([4]; Mus musculus, read-out: TGI): 12.4%; Max. BW loss % ([5]; 10 mpk): 2.6%

Q: With `COc1ccc(Oc2cc(C(C)OP(=O)(N3CC3)N3CC3)ccc2[N+](=O)[O-])cc1` (stereo not shown) [Compound 2873] as the molecule, how does the IC50 [1] read?
A: The IC50 was 5 nM.

Q: And the “TGD 500” value ([4]; 40 mpk)?
A: The value was 12 days.

Q: What about the “TGD 1000” value ([4]; 40 mpk) of the same molecule?
A: The value was 11 days.

Q: And the inhibition in vivo at 40 mg/kg ([4]; Mus musculus, A-375, 40 mpk, read-out: TGI)?
A: Its inhibition in vivo at 40 mg/kg is 65%.

Q: And the “Max. BW loss %” value ([5]; 40 mpk)?
A: Its value is 0%.

Q: What about the AUC [6] of the same molecule?
A: Its AUC is 2100 ng·h/mL.

Q: And the Cmax [6]?
A: Its Cmax is 8430 ng/mL.

Q: What about the Tmax [6] of the same molecule?
A: The Tmax was 5 min.

Q: And the half-life [6]?
A: Its half-life is 8.81 min.

Q: Which results are given for `CC(OP(=O)(N1CC1)N1CC1)c1ccc([N+](=O)[O-])c(Oc2ccc(S(C)(=O)=O)cc2)c1` (stereo not shown) [Compound 2883]?
A: IC50 [1]: 30 nM; TGD 500 [7]: >85 days; TGI [7]: 93.5%; Max. BW loss % [8]: 15.8%; Lethal Tox ([8]; 10 animals per group): 5; AUC [6]: 9080 ng·h/mL; Cmax [6]: 7570 ng/mL; Tmax [6]: 15 min; half-life [6]: 23.4 min

Q: Which results are given for `O=[N+]([O-])c1ccc(COP(=O)(N2CC2)N2CC2)cc1Oc1ccc2c(c1)OCO2` [Compound 2888]?
A: IC50 [1]: 3 nM; TGD 500 ([4]; 10 mpk): 6 days; TGD 1000 ([4]; 10 mpk): 6 days; inhibition in vivo at 10 mg/kg ([4]; Mus musculus, read-out: TGI): 37.3%; Max. BW loss % ([5]; 10 mpk): 4.8%; AUC [6]: 1600 ng·h/mL; Cmax [6]: 5810 ng/mL; Tmax [6]: 5 min; half-life [6]: 10.9 min

Q: For `Cc1ccc(Oc2cc(COP(=O)(N3CC3)N3CC3)ccc2[N+](=O)[O-])cn1` [Compound 2890], which IC50 [1] is on record?
A: Its IC50 is 6 nM.

Q: What about the “TGD 500” value ([4]; 10 mpk) of the same molecule?
A: Its value is 10 days.

Q: And the “TGD 1000” value ([4]; 10 mpk)?
A: The value was 10 days.

Q: And the inhibition in vivo at 10 mg/kg ([4]; Mus musculus, read-out: TGI)?
A: Its inhibition in vivo at 10 mg/kg is 58.4%.

Q: What about the “Max. BW loss %” value ([5]; 10 mpk) of the same molecule?
A: The value was 6.3%.

Q: What about the AUC [6] of the same molecule?
A: Its AUC is 613 ng·h/mL.

Q: What about the Cmax [6] of the same molecule?
A: The Cmax was 2730 ng/mL.

Q: And the Tmax [6]?
A: The Tmax was 5 min.

Q: And the half-life [6]?
A: Its half-life is 5.49 min.
